Measured values published in patent publication US8859535B2, “Hydroxy substituted isoquinolinone derivatives” (Novartis AG, priority 2011, dated 2014).

Assays:
[1] = target: T1, human MDM2 protein (amino acids 2-188) (Homo sapiens, UniProt Q00987); assay: p53-MDM2 TR-FRET assay (p53-MDM2 Assay 1); format: binding; conditions: 1.25 nM MDM2-biotinylated, 10 nM Cy5-p53 peptide; read-out: IC50 (μM) of p53-Hdm2 inhibition (TR-FRET) Assay 1
T1 construct: human MDM2 protein (amino acids 2-188); made in house
Procedure: (§1) Time Resolved Fluorescence Energy Transfer (TR-FRET) Assay
(§2) The inhibition of p53-MDM2 and p53-MDM4 interactions is measured by time resolved fluorescence energy transfer (TR-FRET). Fluorescence energy transfer (or Foerster resonance energy transfer) describes an energy transfer between donor and acceptor fluorescent molecules. For this assay, human MDM2 protein (amino acids 2-188) and human MDM4 protein (amino acids 2-185), tagged with a C-terminal biotin moiety, are used in combination with a Europium labeled streptavidin (Perkin Elmer, Inc., Waltham, Mass., USA) serving as the donor fluorophore. The p53 derived, Cy5 labeled peptide Cy5-TFSDLWKLL (p53 aa18-26) is the energy acceptor. Upon excitation of the donor molecule at 340 nm, binding interaction between MDM2 or MDM4 and the p53 peptide induces energy transfer and enhanced response at the acceptor emission wavelength at 665 nm. Disruption of the formation of the p53-MDM2 or p53-MDM4 complex due to an inhibitor molecule binding to the p53 binding site of MDM2 or MDM4 results in increased donor emission at 620 nm. The ratiometric FRET assay readout is calculated from the raw data of the two distinct fluorescence signals measured in time resolved mode (fluorescence 665 nm/fluorescence 620 nm×1000).
(§3) After addition of 1.25 nM MDM2-biotinylated or 2.5 nM MDM4-biotinylated (internal preparations), and 0.625 nM Europium labeled streptavidin (Perkin Elmer), the solution is pre-incubated for 15 minutes at room temperature, then 10 nM Cy5-p53 peptide (internal preparation) is added before an incubation at room temperature for 15 minutes prior to reading the plate. For measurement of samples, a Victor II microplate reader (Perkin Elmer) is used with the following settings: Excitation 340 nm, Emission Donor 620 nm and Emission Acceptor 665 nm. IC50 values are calculated by curve fitting using XLfit. If not specified, reagents are purchased from Sigma-Aldrich Chemie GmBH, Buchs, Switzerland.
(§4) This assay was used to evaluate compounds displaying inhibition of p53-MDM2 interaction and p53-MDM4 interaction at IC50s of 0.005 to 50 μM (p53-MDM2 Assay 1 and p53-MDM4 Assay 1, respectively). For selected compounds displaying IC50s between […] on MDM2, a slightly modified assay is used with the following adaptations: 0.1 nM MDM2, 0.1 nM Europium labeled streptavidin and Tecan genios Pro is used as a microplate reader for the fluorescence measurements (p53-MDM2 Assay 2).

[2] = target: T2, human MDM4 protein (amino acids 2-185) (Homo sapiens, UniProt O15151); assay: p53-MDM4 TR-FRET assay (p53-MDM4 Assay 1); format: binding; conditions: 2.5 nM MDM4-biotinylated, 10 nM Cy5-p53 peptide; read-out: IC50 (μM) of p53-Hdm4 inhibition (TR-FRET) Assay 1
T2 construct: human MDM4 protein (amino acids 2-185); made in house
T2 sequence (O15151 2-185): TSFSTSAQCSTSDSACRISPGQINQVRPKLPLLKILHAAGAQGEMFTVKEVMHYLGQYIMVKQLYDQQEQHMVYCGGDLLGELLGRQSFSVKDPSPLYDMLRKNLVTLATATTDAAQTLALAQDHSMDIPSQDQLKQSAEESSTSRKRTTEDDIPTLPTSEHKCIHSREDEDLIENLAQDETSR
Procedure: as §1, §2, §3, §4

T1 sequence (Q00987 2-188): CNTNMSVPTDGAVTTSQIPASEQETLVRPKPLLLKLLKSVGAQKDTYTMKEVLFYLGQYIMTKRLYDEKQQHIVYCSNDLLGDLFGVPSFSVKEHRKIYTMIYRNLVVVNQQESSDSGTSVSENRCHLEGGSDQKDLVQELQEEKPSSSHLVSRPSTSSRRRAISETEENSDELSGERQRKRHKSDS

| SMILES | IC50 [1] | IC50 [2] |
| --- | --- | --- |
| COc1cc2c(cc1OC(C)C)[C@H](c1ccc(Cl)cc1)N(c1ccc(C(C)(O)c3ccc(NC(C)=O)cc3)nc1)C(=O)C2 (stereo partly drawn) [Example 24, N-[4-(1-{5-[(S)-1-(4-Chloro-phenyl)-7-isopropoxy-6-methoxy-3-oxo-3,4-dihydro-1H-isoquinolin-2-yl]-pyridin-2-yl}-1-hydroxy-ethyl)-phenyl]-acetamide] | 0.0544 µM | 61.3 µM |
| COc1cc2c(cc1OC(C)C)[C@H](c1ccc(Cl)cc1)N(c1ccc(C(C)(O)C3CCN(CC(F)(F)F)CC3)cc1)C(=O)C2 (stereo partly drawn) [Example 77, (S)-1-(4-Chloro-phenyl)-2-(4-{1-hydroxy-1-[1-(2,2,2-trifluoro-ethyl)-piperidin-4-yl]-ethyl}-phenyl)-7-isopropoxy-6-methoxy-1,4-dihydro-2H-isoquinolin-3-one] | 0.011 µM | 13.5 µM |
| COc1cc2c(cc1OC(C)C)[C@H](c1ccc(Cl)cc1)N(c1ccc(C3(O)CN(C(=O)OC(C)(C)C)C3)cc1)C(=O)C2 [Example 55, 3-{4-[(S)-1-(4-Chloro-phenyl)-7-isopropoxy-6-methoxy-3-oxo-3,4-dihydro-1H-isoquinolin-2-yl]-phenyl}-3-hydroxy-azetidine-1-carboxylic acid tert-butyl ester] | 0.0926 µM | 26.3 µM |
| COc1cc2c(cc1OC(C)C)[C@H](c1ccc(Cl)cc1)N(c1ccc(C(C)(O)C3CC(C)(C)OC(C)(C)C3)cc1)C(=O)C2 (stereo partly drawn) [Example 162] | 0.0065 µM | 5.53 µM |
| COc1cc2c(cc1OC(C)C)[C@H](c1ccc(Cl)cc1)N(c1ccc(C3(O)CN(S(C)(=O)=O)C3)cc1)C(=O)C2 [Example 62, (S)-1-(4-Chloro-phenyl)-2-[4-(3-hydroxy-1-methanesulfonyl-azetidin-3-yl)-phenyl]-7-isopropoxy-6-methoxy-1,4-dihydro-2H-isoquinolin-3-one] | 0.342 µM | 77 µM |
| COc1cc2c(cc1OC(C)C)[C@H](c1ccc(Cl)cc1)N(c1ccc(C(C)(O)C3CN(C(=O)OC(C)(C)C)C3)cc1)C(=O)C2 (stereo partly drawn) [Example 64, 3-(1-{4-[(S)-1-(4-Chloro-phenyl)-7-isopropoxy-6-methoxy-3-oxo-3,4-dihydro-1H-isoquinolin-2-yl]-phenyl}-1-hydroxy-ethyl)-azetidine-1-carboxylic acid tert-butyl ester] | 0.0072 µM | 10.6 µM |
| COc1cc2c(cc1OC(C)C)[C@H](c1ccc(Cl)cc1)N(c1ccc(C3(O)CCCC3)cc1)C(=O)C2 [Example 50, (S)-1-(4-Chloro-phenyl)-2-[4-(1-hydroxy-cyclopentyl)-phenyl]-7-isopropoxy-6-methoxy-1,4-dihydro-2H-isoquinolin-3-one] | 0.246 µM | 90.2 µM |
| COc1cc2c(cc1OC(C)C)[C@H](c1ccc(Cl)cc1)N(c1ccc(C(C)(O)C34CC5CC(CC(C5)C3)C4)cc1)C(=O)C2 (stereo partly drawn) [Example 141, (S)-2-[4-(1-Adamantan-1-yl-1-hydroxy-ethyl)-phenyl]-1-(4-chloro-phenyl)-7-isopropoxy-6-methoxy-1,4-dihydro-2H-isoquinolin-3-one] | 0.0251 µM |  |
| CNC(=O)N1CC(O)(c2ccc(N3C(=O)Cc4cc(OC)c(OC(C)C)cc4[C@@H]3c3ccc(Cl)cc3)cc2)C1 [Example 60, 3-{4-[(S)-1-(4-Chloro-phenyl)-7-isopropoxy-6-methoxy-3-oxo-3,4-dihydro-1H-isoquinolin-2-yl]-phenyl}-3-hydroxy-azetidine-1-carboxylic acid methylamide] | 0.186 µM | 88.4 µM |
| COc1cc2c(cc1OC(C)C)[C@H](c1ccc(Cl)cc1)N(c1ccc(C(C)(O)CCO)cc1)C(=O)C2 (stereo partly drawn) [Example 41, (S)-1-(4-Chloro-phenyl)-2-[4-(1,3-dihydroxy-1-methyl-propyl)-phenyl]-7-isopropoxy-6-methoxy-1,4-dihydro-2H-isoquinolin-3-one] | 0.247 µM |  |
| CCC(C)(O)c1ccc(N2C(=O)Cc3cc(OC)c(OC(C)C)cc3[C@@H]2c2ccc(Cl)cc2)cn1 (stereo partly drawn) [Example 9, (S)-1-(4-Chloro-phenyl)-2-[6-(1-hydroxy-1-methyl-propyl)-pyridin-3-yl]-7-isopropoxy-6-methoxy-1,4-dihydro-2H-isoquinolin-3-one] | 0.459 µM |  |
| COC(=O)N1CC(O)(c2ccc(N3C(=O)Cc4cc(OC)c(OC(C)C)cc4[C@@H]3c3ccc(Cl)cc3)cc2)C1 [Example 58, 3-{4-[(S)-1-(4-Chloro-phenyl)-7-isopropoxy-6-methoxy-3-oxo-3,4-dihydro-1H-isoquinolin-2-yl]-phenyl}-3-hydroxy-azetidine-1-carboxylic acid methyl ester] | 0.205 µM |  |
| COc1cc2c(cc1OC(C)C)[C@H](c1ccc(Cl)cc1)N(c1ccc(C3(O)CN(C(=O)C4CC4)C3)cc1)C(=O)C2 [Example 61, (S)-1-(4-Chloro-phenyl)-2-[4-(1-cyclopropanecarbonyl-3-hydroxy-azetidin-3-yl)-phenyl]-7-isopropoxy-6-methoxy-1,4-dihydro-2H-isoquinolin-3-one] | 0.156 µM |  |
| COc1cc2c(cc1OC(C)C)[C@H](c1ccc(Cl)cc1)N(c1ccc(C3(O)CN(C(C)=O)C3)cc1)C(=O)C2 [Example 57, (S)-2-[4-(1-Acetyl-3-hydroxy-azetidin-3-yl)-phenyl]-1-(4-chloro-phenyl)-7-isopropoxy-6-methoxy-1,4-dihydro-2H-isoquinolin-3-one] | 0.262 µM |  |
| COc1cc2c(cc1OC(C)C)[C@H](c1ccc(Cl)cc1)N(c1ccc([C@](C)(O)C34CC5CC(CC(C5)C3)C4)cc1)C(=O)C2 (single isomer, unassigned) [Example 143] | 2.31 µM |  |
| COc1ccc(C(O)(CO)c2ccc(N3C(=O)Cc4cc(OC)c(OC(C)C)cc4[C@@H]3c3ccc(Cl)cc3)cc2)cc1 (stereo partly drawn) [Example 44, (S)-1-(4-Chloro-phenyl)-2-{4-[1,2-dihydroxy-1-(4-methoxy-phenyl)-ethyl]-phenyl}-7-isopropoxy-6-methoxy-1,4-dihydro-2H-isoquinolin-3-one] | 0.0982 µM |  |
| COc1cc2c(cc1OC(C)C)[C@H](c1ccc(Cl)cc1)N(c1ccc(C3(O)CNC3)cc1)C(=O)C2 [Example 56, (S)-1-(4-Chloro-phenyl)-2-[4-(3-hydroxy-azetidin-3-yl)-phenyl]-7-isopropoxy-6-methoxy-1,4-dihydro-2H-isoquinolin-3-one] | 0.811 µM |  |
| COc1cc2c(cc1OC(C)C)[C@H](c1ccc(Cl)cc1)N(c1ccc(C(C)(O)C3C4CC5CC(C4)CC3C5)cc1)C(=O)C2 (stereo partly drawn) [Example 144, (S)-2-[4-(1-Adamantan-2-yl-1-hydroxy-ethyl)-phenyl]-1-(4-chloro-phenyl)-7-isopropoxy-6-methoxy-1,4-dihydro-2H-isoquinolin-3-one] | 0.123 µM |  |
| COc1cc2c(cc1OC(C)C)[C@H](c1ccc(Cl)cc1)N(c1ccc(C(C)(O)c3cccnc3)cc1F)C(=O)C2 (stereo partly drawn) [Example 20, (S)-1-(4-Chloro-phenyl)-2-[2-fluoro-4-(1-hydroxy-1-pyridin-3-yl-ethyl)-phenyl]-7-isopropoxy-6-methoxy-1,4-dihydro-2H-isoquinolin-3-one] | 0.0723 µM |  |
| COc1cc2c(cc1OC(C)C)[C@H](c1ccc(Cl)cc1)N(c1ccc([C@](C)(O)C3CCC(F)(F)CC3)cc1)C(=O)C2 (single isomer, unassigned) [Example 46] | 0.422 µM |  |
| COc1cc2c(cc1OC(C)C)[C@H](c1ccc(Cl)cc1)N(c1ccc(C3(O)CN(C(=O)N(C)C)C3)cc1)C(=O)C2 [Example 59, 3-{4-[(S)-1-(4-Chloro-phenyl)-7-isopropoxy-6-methoxy-3-oxo-3,4-dihydro-1H-isoquinolin-2-yl]-phenyl}-3-hydroxy-azetidine-1-carboxylic acid dimethylamide] | 0.167 µM |  |
| CCC(C)(O)c1ccc(N2C(=O)Cc3cc(OC)c(OC(C)C)cc3[C@@H]2c2ccc(Cl)cc2)nc1 (stereo partly drawn) [Example 10, (S)-1-(4-Chloro-phenyl)-2-[5-(1-hydroxy-1-methyl-propyl)-pyridin-2-yl]-7-isopropoxy-6-methoxy-1,4-dihydro-2H-isoquinolin-3-one] | 0.247 µM |  |
